Source: ChEMBL document CHEMBL5058649, “Data for DCP probe BAY 1816032” (2022)
The source made the active and inactive calls. The calls are words filed in the database; no cut-off is given here.

Assays:
[1] = target: cAMP-dependent protein kinase catalytic subunit beta (Homo sapiens) (UniProt P22694); assay: PKAC-beta DiscoveRx kinase panel; settings: Compound concentration 1.0 uM
[2] = target: D(1A) dopamine receptor (Homo sapiens) (UniProt P21728); settings: Compound concentration 10.0 uM
[3] = target: Cyclin-dependent kinase 18 (Homo sapiens) (UniProt Q07002); assay: PCTK3 DiscoveRx kinase panel; settings: Compound concentration 1.0 uM
[4] = target: Tyrosine-protein kinase Fer (Homo sapiens) (UniProt P16591); assay: FER DiscoveRx kinase panel; settings: Compound concentration 1.0 uM
[5] = target: Serine/threonine-protein kinase SIK3 (Homo sapiens) (UniProt Q9Y2K2); assay: QSK DiscoveRx kinase panel; settings: Compound concentration 1.0 uM
Caco-2 = assay: Caco2 cell line Proliferation assay; type: functional, Homo sapiens; settings: time 4 day
Rattus norvegicus [6] = species: Rattus norvegicus; assay: Inhibition of Glutamate, NMDA, Phencyclidine at 10 µM in the Eurofins-Panlabs radioligand binding assay (Eurofins_assay_233000); type: protein-complex assay; settings: Compound concentration 10.0 uM
[7] = target: Serine/threonine-protein kinase 17A (Homo sapiens) (UniProt Q9UEE5); assay: DRAK1 DiscoveRx kinase panel; settings: Compound concentration 1.0 uM
[8] = target: TGF-beta receptor type-1 (Homo sapiens) (UniProt P36897); assay: TGFBR1 DiscoveRx kinase panel; settings: Compound concentration 1.0 uM
[9] = target: Mitotic checkpoint serine/threonine-protein kinase BUB1 (Homo sapiens, UniProt O43683); assay: ePCA binding competition (equilibrium binding assay)
[10] = target: Tyrosine-protein kinase TXK (Homo sapiens) (UniProt P42681); assay: TXK DiscoveRx kinase panel; settings: Compound concentration 1.0 uM
[11] = target: Cyclin-dependent kinase 17 (Homo sapiens) (UniProt Q00537); assay: PCTK2 DiscoveRx kinase panel; settings: Compound concentration 1.0 uM
[12] = target: Serine/threonine-protein kinase TBK1 (Homo sapiens) (UniProt Q9UHD2); assay: TBK1 DiscoveRx kinase panel; settings: Compound concentration 1.0 uM
[13] = target: Dual specificity mitogen-activated protein kinase kinase 6 (Homo sapiens) (UniProt P52564); assay: MEK6 DiscoveRx kinase panel; settings: Compound concentration 1.0 uM
[14] = target: Serine/threonine-protein kinase MRCK beta (Homo sapiens) (UniProt Q9Y5S2); assay: MRCKB DiscoveRx kinase panel; settings: Compound concentration 1.0 uM
[15] = target: Tyrosine-protein kinase receptor UFO (Homo sapiens) (UniProt P30530); assay: AXL DiscoveRx kinase panel; settings: Compound concentration 1.0 uM
[16] = target: Bone morphogenetic protein receptor type-1A (Homo sapiens) (UniProt P36894); assay: BMPR1A DiscoveRx kinase panel; settings: Compound concentration 1.0 uM
[17] = target: Cyclin-dependent kinase 5 (Homo sapiens) (UniProt Q00535); assay: CDK5 DiscoveRx kinase panel; settings: Compound concentration 1.0 uM
[18] = target: Substance-P receptor (Homo sapiens) (UniProt P25103); assay: Inhibition of Tachykinin NK1 at 10 µM in the Eurofins-Panlabs radioligand binding assay (Eurofins_assay_255520); design: ligand concentration 0.8 nM; settings: Compound concentration 10.0 uM
[19] = target: Serine/threonine-protein kinase LATS2 (Homo sapiens) (UniProt Q9NRM7); assay: LATS2 DiscoveRx kinase panel; settings: Compound concentration 1.0 uM
[20] = target: Muscarinic acetylcholine receptor M4 (Homo sapiens) (UniProt P08173); settings: Compound concentration 10.0 uM
[21] = target: Rhodopsin kinase GRK7 (Homo sapiens) (UniProt Q8WTQ7); assay: GRK7 DiscoveRx kinase panel; settings: Compound concentration 1.0 uM
[22] = target: Serine/threonine-protein kinase haspin (Homo sapiens) (UniProt Q8TF76); assay: HASPIN DiscoveRx kinase panel; settings: Compound concentration 1.0 uM
[23] = target: Activated CDC42 kinase 1 (Homo sapiens) (UniProt Q07912); assay: TNK2 DiscoveRx kinase panel; settings: Compound concentration 1.0 uM
[24] = target: 5-hydroxytryptamine receptor 1B (Homo sapiens) (UniProt P28222); settings: Compound concentration 10.0 uM
[25] = target: Tyrosine-protein kinase CSK (Homo sapiens) (UniProt P41240); assay: CSK DiscoveRx kinase panel; settings: Compound concentration 1.0 uM
[26] = target: Tyrosine-protein kinase JAK1 (Homo sapiens) (UniProt P23458); assay: JAK1(JH2domain-pseudokinase) DiscoveRx kinase panel; settings: Compound concentration 1.0 uM
[27] = target: Protein kinase C delta type (Homo sapiens) (UniProt Q05655); assay: PRKCD DiscoveRx kinase panel; settings: Compound concentration 1.0 uM
[28] = target: cAMP-dependent protein kinase catalytic subunit PRKX (Homo sapiens) (UniProt P51817); assay: PRKX DiscoveRx kinase panel; settings: Compound concentration 1.0 uM
[29] = target: Vascular endothelial growth factor receptor 2 (Homo sapiens) (UniProt P35968); assay: VEGFR2 DiscoveRx kinase panel; settings: Compound concentration 1.0 uM
[30] = target: Mitogen-activated protein kinase kinase kinase 12 (Homo sapiens) (UniProt Q12852); assay: DLK DiscoveRx kinase panel; settings: Compound concentration 1.0 uM
[31] = target: Non-receptor tyrosine-protein kinase TYK2 (Homo sapiens) (UniProt P29597); assay: TYK2(JH1domain-catalytic) DiscoveRx kinase panel; settings: Compound concentration 1.0 uM
[32] = target: Dual specificity tyrosine-phosphorylation-regulated kinase 1A (Homo sapiens) (UniProt Q13627); assay: DYRK1A DiscoveRx kinase panel; settings: Compound concentration 1.0 uM
[33] = target: Interleukin-1 receptor-associated kinase 4 (Homo sapiens) (UniProt Q9NWZ3); assay: IRAK4 DiscoveRx kinase panel; settings: Compound concentration 1.0 uM
Rattus norvegicus [34] = species: Rattus norvegicus; assay: Glutamate, NMDA, Polyamine Eurofins-Panlabs radioligand binding assay; type: protein-complex assay; design: ligand concentration 2 nM; settings: Compound concentration 10.0 uM
[35] = target: Testis-specific serine/threonine-protein kinase 1 (Homo sapiens) (UniProt Q9BXA7); assay: TSSK1B DiscoveRx kinase panel; settings: Compound concentration 1.0 uM
[36] = target: Estrogen receptor (Homo sapiens) (UniProt P03372); settings: Compound concentration 10.0 uM
[37] = target: Casein kinase I isoform alpha-like (Homo sapiens) (UniProt Q8N752); assay: CSNK1A1L DiscoveRx kinase panel; settings: Compound concentration 1.0 uM
[38] = target: Casein kinase I isoform gamma-2 (Homo sapiens) (UniProt P78368); assay: CSNK1G2 DiscoveRx kinase panel; settings: Compound concentration 1.0 uM
[39] = target: Testis-specific serine/threonine-protein kinase 3 (Homo sapiens) (UniProt Q96PN8); assay: TSSK3 DiscoveRx kinase panel; settings: Compound concentration 1.0 uM
HeLa = assay: HeLa (presence of 3 nM Paclitaxel) cell line Proliferation assay; type: functional, Homo sapiens; settings: time 4 day
[40] = target: Serine/threonine-protein kinase Nek9 (Homo sapiens) (UniProt Q8TD19); assay: NEK9 DiscoveRx kinase panel; settings: Compound concentration 1.0 uM
[41] = target: 1-phosphatidylinositol 3-phosphate 5-kinase (Homo sapiens) (UniProt Q9Y2I7); assay: PIKFYVE DiscoveRx kinase panel; settings: Compound concentration 1.0 uM
[42] = target: Dual specificity testis-specific protein kinase 1 (Homo sapiens) (UniProt Q15569); assay: TESK1 DiscoveRx kinase panel; settings: Compound concentration 1.0 uM
Rattus norvegicus [43] = species: Rattus norvegicus; settings: Compound concentration 10.0 uM
[44] = target: Serine/threonine-protein kinase MRCK gamma (Homo sapiens, UniProt Q6DT37); assay: DMPK2 DiscoveRx kinase panel
[45] = target: Serine/threonine-protein kinase pim-3 (Homo sapiens) (UniProt Q86V86); assay: PIM3 DiscoveRx kinase panel; settings: Compound concentration 1.0 uM
[46] = target: Receptor-interacting serine/threonine-protein kinase 1 (Homo sapiens) (UniProt Q13546); assay: RIPK1 DiscoveRx kinase panel; settings: Compound concentration 1.0 uM
[47] = target: Delta-type opioid receptor (Homo sapiens) (UniProt P41143); settings: Compound concentration 10.0 uM
[48] = target: MAP kinase-interacting serine/threonine-protein kinase 2 (Homo sapiens) (UniProt Q9HBH9); assay: MKNK2 DiscoveRx kinase panel; settings: Compound concentration 1.0 uM
SK-BR-3 = assay: SK-BR-3 cell line Proliferation assay; type: functional, Homo sapiens; settings: time 4 day

Serine/threonine-protein kinase MRCK gamma, sequence (Q6DT37 whole entry): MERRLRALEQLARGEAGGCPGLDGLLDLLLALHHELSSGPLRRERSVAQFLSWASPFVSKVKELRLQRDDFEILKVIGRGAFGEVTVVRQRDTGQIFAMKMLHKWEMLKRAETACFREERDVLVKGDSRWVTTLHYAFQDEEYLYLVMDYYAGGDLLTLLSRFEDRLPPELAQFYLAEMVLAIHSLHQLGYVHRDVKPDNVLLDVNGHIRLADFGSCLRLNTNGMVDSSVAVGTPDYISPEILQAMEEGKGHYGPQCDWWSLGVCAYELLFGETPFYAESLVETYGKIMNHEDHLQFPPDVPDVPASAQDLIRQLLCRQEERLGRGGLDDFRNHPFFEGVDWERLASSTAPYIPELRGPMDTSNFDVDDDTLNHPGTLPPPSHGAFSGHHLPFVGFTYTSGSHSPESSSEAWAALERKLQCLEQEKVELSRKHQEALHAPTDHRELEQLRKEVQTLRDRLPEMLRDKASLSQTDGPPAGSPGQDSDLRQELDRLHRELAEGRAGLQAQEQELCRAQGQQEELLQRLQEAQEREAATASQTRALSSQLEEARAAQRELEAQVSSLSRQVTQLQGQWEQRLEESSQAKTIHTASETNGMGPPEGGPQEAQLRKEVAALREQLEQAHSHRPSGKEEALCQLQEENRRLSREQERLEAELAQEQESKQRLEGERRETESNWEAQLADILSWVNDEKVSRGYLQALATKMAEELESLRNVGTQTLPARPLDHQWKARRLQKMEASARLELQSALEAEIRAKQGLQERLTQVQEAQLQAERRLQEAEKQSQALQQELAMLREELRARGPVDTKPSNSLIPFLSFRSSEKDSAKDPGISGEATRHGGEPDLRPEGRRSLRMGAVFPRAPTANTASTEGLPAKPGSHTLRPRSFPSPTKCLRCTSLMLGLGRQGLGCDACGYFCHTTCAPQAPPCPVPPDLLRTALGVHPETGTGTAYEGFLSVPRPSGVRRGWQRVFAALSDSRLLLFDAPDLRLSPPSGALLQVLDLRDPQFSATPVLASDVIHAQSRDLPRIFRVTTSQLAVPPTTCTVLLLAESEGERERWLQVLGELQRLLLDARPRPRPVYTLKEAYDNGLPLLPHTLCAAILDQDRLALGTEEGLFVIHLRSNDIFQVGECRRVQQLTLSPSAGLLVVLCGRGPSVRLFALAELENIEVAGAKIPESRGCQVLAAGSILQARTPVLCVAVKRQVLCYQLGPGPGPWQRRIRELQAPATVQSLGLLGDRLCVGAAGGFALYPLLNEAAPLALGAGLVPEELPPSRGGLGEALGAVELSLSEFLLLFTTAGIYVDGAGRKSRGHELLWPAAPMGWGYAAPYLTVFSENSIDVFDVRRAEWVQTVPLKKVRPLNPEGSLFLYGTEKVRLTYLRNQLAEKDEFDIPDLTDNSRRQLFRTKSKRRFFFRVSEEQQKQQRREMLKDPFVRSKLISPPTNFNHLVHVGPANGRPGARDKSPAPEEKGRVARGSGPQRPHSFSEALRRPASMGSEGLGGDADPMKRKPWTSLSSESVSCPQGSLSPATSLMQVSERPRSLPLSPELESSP
Tyrosine-protein kinase Fer (Homo sapiens), sequence (P16591 whole entry, looked up): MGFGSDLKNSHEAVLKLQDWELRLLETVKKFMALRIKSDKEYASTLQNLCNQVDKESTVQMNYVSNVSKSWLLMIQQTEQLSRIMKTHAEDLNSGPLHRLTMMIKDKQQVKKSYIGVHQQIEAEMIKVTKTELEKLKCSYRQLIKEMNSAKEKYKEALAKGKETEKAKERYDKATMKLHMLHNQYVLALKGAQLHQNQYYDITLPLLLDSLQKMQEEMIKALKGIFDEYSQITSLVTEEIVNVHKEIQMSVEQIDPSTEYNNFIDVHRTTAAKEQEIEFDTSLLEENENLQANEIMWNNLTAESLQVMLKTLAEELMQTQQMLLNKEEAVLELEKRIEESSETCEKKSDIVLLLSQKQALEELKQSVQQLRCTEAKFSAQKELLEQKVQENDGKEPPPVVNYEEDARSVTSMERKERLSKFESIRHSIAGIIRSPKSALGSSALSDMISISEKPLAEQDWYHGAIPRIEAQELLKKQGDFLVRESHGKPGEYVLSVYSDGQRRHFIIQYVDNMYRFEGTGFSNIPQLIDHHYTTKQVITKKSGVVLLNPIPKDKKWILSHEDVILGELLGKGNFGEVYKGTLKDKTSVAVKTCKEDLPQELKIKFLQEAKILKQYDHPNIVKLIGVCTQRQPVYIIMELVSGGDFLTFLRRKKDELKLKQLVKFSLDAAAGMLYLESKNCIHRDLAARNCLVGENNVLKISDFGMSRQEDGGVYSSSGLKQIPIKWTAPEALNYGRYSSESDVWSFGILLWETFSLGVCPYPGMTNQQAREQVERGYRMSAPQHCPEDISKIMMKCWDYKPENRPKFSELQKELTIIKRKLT
Serine/threonine-protein kinase SIK3 (Homo sapiens), sequence (Q9Y2K2 whole entry, looked up): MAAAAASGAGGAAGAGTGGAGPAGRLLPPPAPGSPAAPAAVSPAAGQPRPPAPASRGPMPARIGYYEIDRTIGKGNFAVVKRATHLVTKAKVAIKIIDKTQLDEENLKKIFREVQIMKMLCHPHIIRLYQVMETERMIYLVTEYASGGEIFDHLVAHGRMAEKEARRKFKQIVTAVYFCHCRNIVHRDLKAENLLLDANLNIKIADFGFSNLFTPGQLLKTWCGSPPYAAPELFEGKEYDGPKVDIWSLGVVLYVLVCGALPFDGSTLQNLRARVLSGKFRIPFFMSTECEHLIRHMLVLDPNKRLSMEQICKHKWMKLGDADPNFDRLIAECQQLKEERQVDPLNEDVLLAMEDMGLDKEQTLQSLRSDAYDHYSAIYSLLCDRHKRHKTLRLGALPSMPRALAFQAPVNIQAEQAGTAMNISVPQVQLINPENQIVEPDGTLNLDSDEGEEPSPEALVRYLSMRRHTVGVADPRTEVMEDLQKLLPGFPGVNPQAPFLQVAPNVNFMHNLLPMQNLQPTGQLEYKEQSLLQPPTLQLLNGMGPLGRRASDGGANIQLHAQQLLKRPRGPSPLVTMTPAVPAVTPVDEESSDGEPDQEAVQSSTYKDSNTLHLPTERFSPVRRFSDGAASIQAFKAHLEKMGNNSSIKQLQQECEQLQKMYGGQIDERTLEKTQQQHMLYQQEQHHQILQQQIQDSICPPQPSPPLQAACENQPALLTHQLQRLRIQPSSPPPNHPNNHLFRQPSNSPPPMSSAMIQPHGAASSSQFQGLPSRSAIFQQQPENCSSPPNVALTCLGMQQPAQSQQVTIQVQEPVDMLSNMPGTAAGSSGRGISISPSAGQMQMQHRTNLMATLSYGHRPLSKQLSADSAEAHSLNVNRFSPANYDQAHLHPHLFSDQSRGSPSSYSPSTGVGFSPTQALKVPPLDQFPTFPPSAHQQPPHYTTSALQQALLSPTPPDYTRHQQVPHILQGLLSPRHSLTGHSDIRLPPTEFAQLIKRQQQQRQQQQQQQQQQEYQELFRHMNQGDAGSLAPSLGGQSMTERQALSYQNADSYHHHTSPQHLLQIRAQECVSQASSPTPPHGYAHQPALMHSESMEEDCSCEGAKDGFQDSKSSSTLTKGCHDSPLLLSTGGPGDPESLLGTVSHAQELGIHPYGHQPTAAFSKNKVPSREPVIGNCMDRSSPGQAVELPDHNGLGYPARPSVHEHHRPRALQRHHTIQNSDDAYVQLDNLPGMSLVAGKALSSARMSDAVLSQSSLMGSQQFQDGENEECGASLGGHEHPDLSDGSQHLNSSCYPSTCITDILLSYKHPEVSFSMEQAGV
5-hydroxytryptamine receptor 1B (Homo sapiens), sequence (P28222 whole entry): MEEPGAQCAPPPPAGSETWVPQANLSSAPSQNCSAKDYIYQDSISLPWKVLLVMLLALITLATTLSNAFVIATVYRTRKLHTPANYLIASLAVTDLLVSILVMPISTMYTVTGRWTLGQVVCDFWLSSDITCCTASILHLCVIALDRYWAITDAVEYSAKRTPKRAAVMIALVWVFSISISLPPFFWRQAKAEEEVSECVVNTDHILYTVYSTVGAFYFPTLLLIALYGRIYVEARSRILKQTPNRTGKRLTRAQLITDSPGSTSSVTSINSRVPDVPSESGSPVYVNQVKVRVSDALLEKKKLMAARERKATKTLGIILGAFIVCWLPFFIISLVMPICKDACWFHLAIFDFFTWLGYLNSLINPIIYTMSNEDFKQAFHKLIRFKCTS
Activated CDC42 kinase 1 (Homo sapiens), sequence (Q07912 whole entry, looked up): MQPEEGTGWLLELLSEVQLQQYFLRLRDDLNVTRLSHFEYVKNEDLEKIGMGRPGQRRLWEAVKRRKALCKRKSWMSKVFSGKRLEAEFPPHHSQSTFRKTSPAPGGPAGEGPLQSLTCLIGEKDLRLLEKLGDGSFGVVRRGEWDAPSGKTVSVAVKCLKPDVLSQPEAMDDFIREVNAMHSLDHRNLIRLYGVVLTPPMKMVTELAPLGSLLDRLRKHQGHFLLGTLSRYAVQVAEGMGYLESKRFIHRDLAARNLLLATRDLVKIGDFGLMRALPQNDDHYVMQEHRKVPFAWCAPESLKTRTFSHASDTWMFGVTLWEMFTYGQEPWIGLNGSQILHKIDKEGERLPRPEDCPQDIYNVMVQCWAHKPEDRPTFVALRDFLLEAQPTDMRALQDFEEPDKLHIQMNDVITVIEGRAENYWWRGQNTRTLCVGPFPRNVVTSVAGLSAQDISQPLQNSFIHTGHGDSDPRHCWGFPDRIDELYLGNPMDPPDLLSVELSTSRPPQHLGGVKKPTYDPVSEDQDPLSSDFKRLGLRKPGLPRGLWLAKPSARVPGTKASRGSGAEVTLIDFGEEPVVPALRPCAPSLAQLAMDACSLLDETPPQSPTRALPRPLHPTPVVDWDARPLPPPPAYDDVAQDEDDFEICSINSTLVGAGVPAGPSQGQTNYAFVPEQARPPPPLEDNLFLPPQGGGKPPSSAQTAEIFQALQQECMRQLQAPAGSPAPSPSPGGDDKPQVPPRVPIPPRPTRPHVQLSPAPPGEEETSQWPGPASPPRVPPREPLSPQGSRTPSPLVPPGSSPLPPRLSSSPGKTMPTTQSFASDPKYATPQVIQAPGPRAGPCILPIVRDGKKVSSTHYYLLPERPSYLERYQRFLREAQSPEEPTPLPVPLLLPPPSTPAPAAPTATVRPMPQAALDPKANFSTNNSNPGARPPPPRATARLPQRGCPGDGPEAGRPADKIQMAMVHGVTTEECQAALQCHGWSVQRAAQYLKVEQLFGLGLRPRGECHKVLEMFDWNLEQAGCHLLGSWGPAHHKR

SMILES: COc1cnccc1Nc1nc(-c2nn(Cc3c(F)cc(OCCO)cc3F)c3ccccc23)ncc1OC
- residual activity [1]: 100%
- inhibition [2]: 5%
- residual activity [3]: 76%
- residual activity [4]: 100%
- residual activity [5]: 100%
- Cell Proliferation IC50 (Caco-2): 1000 nM
- inhibition (Rattus norvegicus [6]): 2%
- residual activity [7]: 95%
- residual activity [8]: 53%
- IC50 [9]: 1 nM (active)
- residual activity [10]: 64%
- residual activity [11]: 87%
- residual activity [12]: 94%
- residual activity [13]: 89%
- residual activity [14]: 98%
- residual activity [15]: 47%
- residual activity [16]: 74%
- residual activity [17]: 81%
- inhibition [18]: 19%
- residual activity [19]: 100%
- inhibition [20]: 8%
- residual activity [21]: 60%
- residual activity [22]: 100%
- residual activity [23]: 100%
- inhibition [24]: 11.8%
- residual activity [25]: 77%
- residual activity [26]: 100%
- residual activity [27]: 80%
- residual activity [28]: 100%
- residual activity [29]: 100%
- residual activity [30]: 87%
- residual activity [31]: 100%
- residual activity [32]: 96%
- residual activity [33]: 100%
- inhibition (Rattus norvegicus [34]): 0%
- residual activity [35]: 100%
- inhibition [36]: 10%
- residual activity [37]: 89%
- residual activity [38]: 78%
- residual activity [39]: 90%
- Cell Proliferation IC50 (HeLa): 63 nM
- residual activity [40]: 82%
- residual activity [41]: 88%
- residual activity [42]: 57%
- inhibition (Rattus norvegicus [43]): 1%
- Kd [44]: 850 nM
- residual activity ([44]; Compound concentration 1.0 uM): 22%
- residual activity [45]: 100%
- residual activity [46]: 97%
- inhibition [47]: -6%
- residual activity [48]: 100%
- Cell Proliferation IC50 (SK-BR-3): 1100 nM
